Target: T1, CHLH (CHLH/ABAR) (Arabidopsis thaliana, UniProt Q9FNB0)
T1 construct: ORF in pFastBac HFT-B, Flag-tagged fusion, expressed in Sf9 insect cells; about 150 kDa; full length 1381 residues; amine-coupled on CM5 chip
T1 sequence (Q9FNB0 1-1381): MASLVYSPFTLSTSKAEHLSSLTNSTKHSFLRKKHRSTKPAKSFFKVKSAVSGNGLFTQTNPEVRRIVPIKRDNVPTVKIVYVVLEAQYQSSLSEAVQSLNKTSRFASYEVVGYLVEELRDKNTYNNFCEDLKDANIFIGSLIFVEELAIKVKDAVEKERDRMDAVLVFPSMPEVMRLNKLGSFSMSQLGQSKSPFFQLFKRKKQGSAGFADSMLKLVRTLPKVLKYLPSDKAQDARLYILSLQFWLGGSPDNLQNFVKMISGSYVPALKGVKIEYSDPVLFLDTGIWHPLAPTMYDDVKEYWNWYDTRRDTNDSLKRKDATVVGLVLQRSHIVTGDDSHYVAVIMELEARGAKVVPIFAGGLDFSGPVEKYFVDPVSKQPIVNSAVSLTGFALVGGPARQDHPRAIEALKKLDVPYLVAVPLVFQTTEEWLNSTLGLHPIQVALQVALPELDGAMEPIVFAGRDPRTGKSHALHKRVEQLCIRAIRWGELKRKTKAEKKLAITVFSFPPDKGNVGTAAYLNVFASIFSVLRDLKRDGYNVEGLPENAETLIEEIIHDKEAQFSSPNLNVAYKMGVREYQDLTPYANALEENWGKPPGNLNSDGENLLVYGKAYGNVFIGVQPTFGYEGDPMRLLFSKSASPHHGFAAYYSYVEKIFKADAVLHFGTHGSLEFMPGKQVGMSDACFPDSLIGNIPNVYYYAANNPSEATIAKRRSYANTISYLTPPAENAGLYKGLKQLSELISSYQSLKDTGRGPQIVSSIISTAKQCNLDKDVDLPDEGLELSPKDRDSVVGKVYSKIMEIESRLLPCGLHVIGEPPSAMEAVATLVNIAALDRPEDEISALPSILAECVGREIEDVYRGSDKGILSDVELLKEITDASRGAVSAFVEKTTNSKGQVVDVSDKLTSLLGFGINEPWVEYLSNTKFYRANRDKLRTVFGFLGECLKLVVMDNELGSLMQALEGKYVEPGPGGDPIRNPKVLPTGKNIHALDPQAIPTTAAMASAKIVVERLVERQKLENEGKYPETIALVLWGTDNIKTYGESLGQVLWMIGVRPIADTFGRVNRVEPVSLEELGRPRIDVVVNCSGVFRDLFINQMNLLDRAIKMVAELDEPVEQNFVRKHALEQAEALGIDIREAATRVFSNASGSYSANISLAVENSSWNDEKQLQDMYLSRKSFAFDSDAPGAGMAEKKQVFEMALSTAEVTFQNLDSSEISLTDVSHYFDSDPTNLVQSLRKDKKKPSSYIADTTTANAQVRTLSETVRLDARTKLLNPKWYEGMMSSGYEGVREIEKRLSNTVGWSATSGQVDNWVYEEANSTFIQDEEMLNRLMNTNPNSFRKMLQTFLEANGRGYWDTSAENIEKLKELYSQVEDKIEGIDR
Assay: SPR (Biacore T200, CM5 chip, protein immobilized by amine coupling), steady-state fit
Type: binding
Details: HBS-EP running buffer with EDTA, pH 7.4, 25 °C, 6-100 μM analyte; unreliable (authors attribute the low affinity to technical limits of SPR)

Kd: 20 µM
Compound: CC1=CC(=O)CC(C)(C)C1(O)/C=C/C(C)=C\C(=O)O (stereo in doubt) [(+)-ABA]

Source: article PMC3472068, “Roles of the different components of magnesium chelatase in abscisic acid signal transduction” (Plant Molecular Biology, 2012)
